From ChEMBL document CHEMBL1128035, “Structural optimization of alkyl-substituted 2-(7-5H-[1]benzopyrano[2,3-b]pyridyl)propionic acid as anti-inflammatory agents” (Bioorg Med Chem Lett, 1995)

Tests used:
[1] = Partition coefficient measured in n-octanol/ pH 7.4 phosphate buffer; assay type: physicochemical
[2] = target: T1, Prostaglandin G/H synthase 1 (Ovis aries, UniProt P05979); assay: Inhibitory activity against COX-1 from ram seminal vesicles
T1 sequence (P05979 whole entry): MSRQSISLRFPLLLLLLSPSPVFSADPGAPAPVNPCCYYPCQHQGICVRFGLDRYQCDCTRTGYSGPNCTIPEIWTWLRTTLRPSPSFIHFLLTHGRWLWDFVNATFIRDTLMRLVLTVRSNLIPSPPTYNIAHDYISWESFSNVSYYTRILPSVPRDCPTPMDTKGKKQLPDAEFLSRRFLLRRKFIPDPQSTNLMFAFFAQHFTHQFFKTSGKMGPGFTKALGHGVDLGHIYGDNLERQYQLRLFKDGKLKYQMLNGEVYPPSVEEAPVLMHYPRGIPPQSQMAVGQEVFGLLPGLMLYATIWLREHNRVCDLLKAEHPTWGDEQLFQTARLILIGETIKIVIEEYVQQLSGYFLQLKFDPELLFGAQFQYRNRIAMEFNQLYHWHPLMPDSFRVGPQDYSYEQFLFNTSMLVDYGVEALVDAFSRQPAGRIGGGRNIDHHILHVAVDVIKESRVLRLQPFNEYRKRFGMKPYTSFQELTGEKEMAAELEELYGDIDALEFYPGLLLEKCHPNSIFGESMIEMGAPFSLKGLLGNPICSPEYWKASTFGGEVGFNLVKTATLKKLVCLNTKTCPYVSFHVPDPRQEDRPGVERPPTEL

[3] = target: T2, Prostaglandin G/H synthase 1 (Rattus norvegicus, UniProt Q63921); assay: Inhibitory activity against COX-1 from rat peritoneal leukocytes, measured by PGE-2 produced (enzyme immunoassay)
T2 sequence (Q63921 whole entry): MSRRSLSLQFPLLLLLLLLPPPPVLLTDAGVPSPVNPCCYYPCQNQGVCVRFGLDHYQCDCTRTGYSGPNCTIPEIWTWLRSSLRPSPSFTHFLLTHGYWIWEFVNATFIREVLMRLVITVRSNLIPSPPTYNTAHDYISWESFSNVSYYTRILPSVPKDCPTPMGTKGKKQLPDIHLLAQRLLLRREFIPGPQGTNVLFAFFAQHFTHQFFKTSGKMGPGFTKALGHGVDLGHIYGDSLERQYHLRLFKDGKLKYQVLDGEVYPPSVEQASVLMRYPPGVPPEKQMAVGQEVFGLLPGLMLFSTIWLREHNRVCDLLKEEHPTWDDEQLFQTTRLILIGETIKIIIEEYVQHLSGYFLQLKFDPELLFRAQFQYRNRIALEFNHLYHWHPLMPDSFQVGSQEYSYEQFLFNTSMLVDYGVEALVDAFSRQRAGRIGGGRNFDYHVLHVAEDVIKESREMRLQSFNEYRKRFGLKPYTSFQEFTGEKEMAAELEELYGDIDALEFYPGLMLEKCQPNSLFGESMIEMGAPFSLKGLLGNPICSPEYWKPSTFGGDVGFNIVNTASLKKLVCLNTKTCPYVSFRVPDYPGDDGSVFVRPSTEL

With `Cc1cnc2c(c1)Cc1cc(C(C)C(=O)O)ccc1O2` (configuration not stated) the logD [1] was 0.03 and the IC50 [2] was 11000 nM.
For `CCCc1ccc2c(n1)Oc1ccc(C(C)C(=O)O)cc1C2` (configuration not stated), the logD [1] was 1.08 and the IC50 [2] was > 100000 nM.
`CC(C(=O)O)c1ccc2c(c1)Cc1cccnc1O2` (configuration not stated) [PRANOPROFEN] showed a logD [1] of -0.72, an IC50 [3] of 390 nM and an IC50 [2] of 3100 nM.
In the case of `CC(C)c1ccc2c(n1)Oc1ccc(C(C)C(=O)O)cc1C2` (configuration not stated), the logD [1] is reported as 0.67 and the IC50 [2] is reported as > 100000 nM.
Molecule `Cc1ccc2c(n1)Oc1ccc(C(C)C(=O)O)cc1C2` (configuration not stated) has a logD [1] of -0.11, an IC50 [3] of 30 nM and an IC50 [2] of 320 nM.
Molecule `CCc1ccc2c(n1)Oc1ccc(C(C)C(=O)O)cc1C2` (configuration not stated) has a logD [1] of 0.45, an IC50 [3] of 110 nM and an IC50 [2] of 850 nM.
In the case of `Cc1ccnc2c1Cc1cc(C(C)C(=O)O)ccc1O2` (configuration not stated), the logD [1] is reported as -0.17 and the IC50 [2] is reported as > 100000 nM.
